From the supplement of paper PMC10307832

Legend:
Experiment in all cases: relative viability (nuclei count vs DMSO), 5 days (fraction); higher = more cells survive
201T = system: 201T
Procedure, shortened: (§1)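 One day after seeding in 1536-well plates, lung cancer cell lines were dosed by pin tool. Dosing was either single-drug or a fixed anchor-drug dose plus five library-drug doses (not always all listed) in √10 steps. After 5 days, nuclei were stained in one fix-and-stain step and counted on 4× images, and relative viability is the nuclei count of treated wells over that of vehicle wells, given as the median of duplicate plates.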

BEN = system: BEN
Procedure, shortened: as §1

EMC-BAC-2 = system: EMC-BAC-2
Procedure, shortened: as §1

HARA = system: HARA
Procedure, shortened: as §1

HCC-44 = system: HCC-44
Procedure, shortened: as §1

LCLC-103H = system: LCLC-103H
Procedure, shortened: as §1

LOU-NH91 = system: LOU-NH91
Procedure, shortened: as §1

NCI-H1666 = system: NCI-H1666
Procedure, shortened: as §1

NCI-H1993 = system: NCI-H1993
Procedure, shortened: as §1

NCI-H2009 = system: NCI-H2009
Procedure, shortened: as §1

NCI-H2023 = system: NCI-H2023
Procedure, shortened: as §1

NCI-H2087 = system: NCI-H2087
Procedure, shortened: as §1

NCI-H2126 = system: NCI-H2126
Procedure, shortened: as §1

NCI-H2347 = system: NCI-H2347
Procedure, shortened: as §1

NCI-H23 = system: NCI-H23
Procedure, shortened: as §1

NCI-H3122 = system: NCI-H3122
Procedure, shortened: as §1

NCI-H441 = system: NCI-H441
Procedure, shortened: as §1

NCI-H596 = system: NCI-H596
Procedure, shortened: as §1

NCI-H647 = system: NCI-H647
Procedure, shortened: as §1

NCI-H650 = system: NCI-H650
Procedure, shortened: as §1

NCI-H727 = system: NCI-H727
Procedure, shortened: as §1

NCI-H838 = system: NCI-H838
Procedure, shortened: as §1

## CC1(C)CCC(c2ccc(Cl)cc2)=C(CN2CCN(c3ccc(C(=O)NS(=O)(=O)c4ccc(N[C@H](CCN5CCOCC5)CSc5ccccc5)c(S(=O)(=O)C(F)(F)F)c4)cc3)CC2)C1 [Navitoclax] + C[C@@H](Oc1cc(-c2cnn(C3CCNCC3)c2)cnc1N)c1c(Cl)ccc(F)c1Cl [Crizotinib] (partner 1 µM)
201T; first compound 0.005 µM
  relative viability: 1.03
201T; first compound 0.01581 µM
  relative viability: 1.05
201T; first compound 0.05 µM
  relative viability: 0.975
201T; first compound 0.1581 µM
  relative viability: 1.04
201T; first compound 0.5 µM
  relative viability: 1.03
BEN; first compound 0.005 µM
  relative viability: 0.878
BEN; first compound 0.01581 µM
  relative viability: 0.897
BEN; first compound 0.05 µM
  relative viability: 0.936
BEN; first compound 0.1581 µM
  relative viability: 0.944
BEN; first compound 0.5 µM
  relative viability: 0.662
EMC-BAC-2; first compound 0.005 µM
  relative viability: 0.716
EMC-BAC-2; first compound 0.01581 µM
  relative viability: 0.689
EMC-BAC-2; first compound 0.05 µM
  relative viability: 0.743
EMC-BAC-2; first compound 0.1581 µM
  relative viability: 0.703
EMC-BAC-2; first compound 0.5 µM
  relative viability: 0.701
HARA; first compound 0.005 µM
  relative viability: 1.09
HARA; first compound 0.01581 µM
  relative viability: 1.16
HARA; first compound 0.05 µM
  relative viability: 0.944
HARA; first compound 0.1581 µM
  relative viability: 0.907
HARA; first compound 0.5 µM
  relative viability: 1.01
HCC-44; first compound 0.005 µM
  relative viability: 0.815
HCC-44; first compound 0.01581 µM
  relative viability: 0.835
HCC-44; first compound 0.05 µM
  relative viability: 0.794
HCC-44; first compound 0.1581 µM
  relative viability: 0.825
HCC-44; first compound 0.5 µM
  relative viability: 0.866
LCLC-103H; first compound 0.005 µM
  relative viability: 1.05
LCLC-103H; first compound 0.01581 µM
  relative viability: 0.979
LCLC-103H; first compound 0.05 µM
  relative viability: 0.951
LCLC-103H; first compound 0.1581 µM
  relative viability: 1.12
LCLC-103H; first compound 0.5 µM
  relative viability: 0.976
LOU-NH91; first compound 0.005 µM
  relative viability: 0.766
LOU-NH91; first compound 0.01581 µM
  relative viability: 0.742
LOU-NH91; first compound 0.05 µM
  relative viability: 0.807
LOU-NH91; first compound 0.1581 µM
  relative viability: 0.731
LOU-NH91; first compound 0.5 µM
  relative viability: 0.711
NCI-H1666; first compound 0.005 µM
  relative viability: 0.991
NCI-H1666; first compound 0.01581 µM
  relative viability: 1.08
NCI-H1666; first compound 0.05 µM
  relative viability: 1.03
NCI-H1666; first compound 0.1581 µM
  relative viability: 0.879
NCI-H1666; first compound 0.5 µM
  relative viability: 0.975
NCI-H1993; first compound 0.005 µM
  relative viability: 0.89
NCI-H1993; first compound 0.01581 µM
  relative viability: 1
NCI-H1993; first compound 0.05 µM
  relative viability: 0.848
NCI-H1993; first compound 0.1581 µM
  relative viability: 0.853
NCI-H1993; first compound 0.5 µM
  relative viability: 0.866
NCI-H2009; first compound 0.005 µM
  relative viability: 0.972
NCI-H2009; first compound 0.01581 µM
  relative viability: 1.05
NCI-H2009; first compound 0.05 µM
  relative viability: 1.1
NCI-H2009; first compound 0.1581 µM
  relative viability: 1.13
NCI-H2009; first compound 0.5 µM
  relative viability: 1.05
NCI-H2023; first compound 0.005 µM
  relative viability: 0.668
NCI-H2023; first compound 0.01581 µM
  relative viability: 0.65
NCI-H2023; first compound 0.05 µM
  relative viability: 0.694
NCI-H2023; first compound 0.1581 µM
  relative viability: 0.738
NCI-H2023; first compound 0.5 µM
  relative viability: 0.662
NCI-H2087; first compound 0.005 µM
  relative viability: 0.911
NCI-H2087; first compound 0.01581 µM
  relative viability: 0.766
NCI-H2087; first compound 0.05 µM
  relative viability: 0.873
NCI-H2087; first compound 0.1581 µM
  relative viability: 0.892
NCI-H2087; first compound 0.5 µM
  relative viability: 0.976
NCI-H2126; first compound 0.005 µM
  relative viability: 1.04
NCI-H2126; first compound 0.01581 µM
  relative viability: 1.05
NCI-H2126; first compound 0.05 µM
  relative viability: 1.07
NCI-H2126; first compound 0.1581 µM
  relative viability: 1.01
NCI-H2126; first compound 0.5 µM
  relative viability: 0.972
NCI-H2347; first compound 0.005 µM
  relative viability: 0.653
NCI-H2347; first compound 0.01581 µM
  relative viability: 0.602
NCI-H2347; first compound 0.05 µM
  relative viability: 0.2
NCI-H2347; first compound 0.1581 µM
  relative viability: 0.681
NCI-H2347; first compound 0.5 µM
  relative viability: 0.705
NCI-H23; first compound 0.005 µM
  relative viability: 0.519
NCI-H23; first compound 0.01581 µM
  relative viability: 0.494
NCI-H23; first compound 0.05 µM
  relative viability: 0.516
NCI-H23; first compound 0.1581 µM
  relative viability: 0.516
NCI-H23; first compound 0.5 µM
  relative viability: 0.545
NCI-H3122; first compound 0.005 µM
  relative viability: 0.254
NCI-H3122; first compound 0.01581 µM
  relative viability: 0.308
NCI-H3122; first compound 0.05 µM
  relative viability: 0.244
NCI-H3122; first compound 0.1581 µM
  relative viability: 0.306
NCI-H3122; first compound 0.5 µM
  relative viability: 0.292
NCI-H441; first compound 0.005 µM
  relative viability: 0.657
NCI-H441; first compound 0.01581 µM
  relative viability: 0.865
NCI-H441; first compound 0.05 µM
  relative viability: 0.734
NCI-H441; first compound 0.1581 µM
  relative viability: 0.764
NCI-H441; first compound 0.5 µM
  relative viability: 0.621
NCI-H596; first compound 0.005 µM
  relative viability: 1.02
NCI-H596; first compound 0.01581 µM
  relative viability: 0.985
NCI-H596; first compound 0.05 µM
  relative viability: 0.802
NCI-H596; first compound 0.1581 µM
  relative viability: 1.02
NCI-H596; first compound 0.5 µM
  relative viability: 1.01
NCI-H647; first compound 0.005 µM
  relative viability: 1.16
NCI-H647; first compound 0.01581 µM
  relative viability: 1.18
NCI-H647; first compound 0.05 µM
  relative viability: 1.42
NCI-H647; first compound 0.1581 µM
  relative viability: 0.874
NCI-H647; first compound 0.5 µM
  relative viability: 0.896
NCI-H650; first compound 0.005 µM
  relative viability: 0.636
NCI-H650; first compound 0.01581 µM
  relative viability: 0.699
NCI-H650; first compound 0.05 µM
  relative viability: 0.814
NCI-H650; first compound 0.1581 µM
  relative viability: 0.707
NCI-H650; first compound 0.5 µM
  relative viability: 0.805
NCI-H727; first compound 0.005 µM
  relative viability: 0.692
NCI-H727; first compound 0.01581 µM
  relative viability: 1.11
NCI-H727; first compound 0.1581 µM
  relative viability: 0.797
NCI-H727; first compound 0.5 µM
  relative viability: 0.73
NCI-H838; first compound 0.005 µM
  relative viability: 0.794
NCI-H838; first compound 0.01581 µM
  relative viability: 0.885
NCI-H838; first compound 0.05 µM
  relative viability: 1.01
NCI-H838; first compound 0.1581 µM
  relative viability: 0.802
NCI-H838; first compound 0.5 µM
  relative viability: 0.817
